In the kinase profiling compilation of Christmann-Franck et al. (2016):

Legend:
Assay in all cases: radiometric filter-binding kinase assay
MAPK8 (human) = MAPK8 (human) (UniProt P45983)
DAPK1 (human) = DAPK1 (human) (UniProt P53355)
MAPKAPK3 (human) = MAPKAPK3 (human) (UniProt Q16644)
IKBKE (human) = IKBKE (human) (UniProt Q14164)
IKBKB (human) = IKBKB (human) (UniProt O14920)
EPHB3 (human) = EPHB3 (human) (UniProt P54753)
PIM3 (human) = PIM3 (human) (UniProt Q86V86)
MAP2K6 (human) = MAP2K6 (human) (UniProt P52564)
MAP3K11 (human) = MAP3K11 (human) (UniProt Q16584)
Sequence of MAP3K11 (human) (Q16584 whole entry, looked up): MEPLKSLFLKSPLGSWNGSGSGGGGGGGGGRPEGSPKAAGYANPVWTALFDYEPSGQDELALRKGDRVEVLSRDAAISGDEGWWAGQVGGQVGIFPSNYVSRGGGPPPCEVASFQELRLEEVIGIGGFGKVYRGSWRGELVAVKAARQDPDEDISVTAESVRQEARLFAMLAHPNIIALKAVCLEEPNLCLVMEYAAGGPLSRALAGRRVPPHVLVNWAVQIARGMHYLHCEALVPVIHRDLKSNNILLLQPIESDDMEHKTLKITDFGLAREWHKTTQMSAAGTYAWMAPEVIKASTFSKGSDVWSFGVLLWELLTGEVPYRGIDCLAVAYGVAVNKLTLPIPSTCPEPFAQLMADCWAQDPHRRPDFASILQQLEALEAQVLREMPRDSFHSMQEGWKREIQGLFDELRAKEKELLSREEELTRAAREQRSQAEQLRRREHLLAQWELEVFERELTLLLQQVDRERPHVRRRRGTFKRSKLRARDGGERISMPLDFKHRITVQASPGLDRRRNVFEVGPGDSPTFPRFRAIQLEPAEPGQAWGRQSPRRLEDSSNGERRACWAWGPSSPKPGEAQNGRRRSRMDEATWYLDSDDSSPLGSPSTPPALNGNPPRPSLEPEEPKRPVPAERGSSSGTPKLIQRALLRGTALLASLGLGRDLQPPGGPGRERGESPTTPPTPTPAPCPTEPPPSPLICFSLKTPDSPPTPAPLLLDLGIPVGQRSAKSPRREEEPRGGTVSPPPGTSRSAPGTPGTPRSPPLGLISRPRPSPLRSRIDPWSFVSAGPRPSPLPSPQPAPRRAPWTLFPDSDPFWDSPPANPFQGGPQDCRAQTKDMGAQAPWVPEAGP

MAPK3 (human) = MAPK3 (human) (UniProt P27361)
STK3 (human) = STK3 (human) (UniProt Q13188)
[1] = test system: AKT1 (human), P31749 [S473D]
DYRK1A (human) = DYRK1A (human) (UniProt Q13627)
MAPK12 (human) = MAPK12 (human) (UniProt P53778)
TBK1 (human) = TBK1 (human) (UniProt Q9UHD2)
IRAK4 (human) = IRAK4 (human) (UniProt Q9NWZ3); settings: compound 0.1 µM
MAP3K7 TAB1 (human) = MAP3K7 TAB1 (human) (UniProt Q15750+O43318)
DYRK3 (human) = DYRK3 (human) (UniProt O43781)
Sequence of DYRK3 (human) (O43781 whole entry, looked up): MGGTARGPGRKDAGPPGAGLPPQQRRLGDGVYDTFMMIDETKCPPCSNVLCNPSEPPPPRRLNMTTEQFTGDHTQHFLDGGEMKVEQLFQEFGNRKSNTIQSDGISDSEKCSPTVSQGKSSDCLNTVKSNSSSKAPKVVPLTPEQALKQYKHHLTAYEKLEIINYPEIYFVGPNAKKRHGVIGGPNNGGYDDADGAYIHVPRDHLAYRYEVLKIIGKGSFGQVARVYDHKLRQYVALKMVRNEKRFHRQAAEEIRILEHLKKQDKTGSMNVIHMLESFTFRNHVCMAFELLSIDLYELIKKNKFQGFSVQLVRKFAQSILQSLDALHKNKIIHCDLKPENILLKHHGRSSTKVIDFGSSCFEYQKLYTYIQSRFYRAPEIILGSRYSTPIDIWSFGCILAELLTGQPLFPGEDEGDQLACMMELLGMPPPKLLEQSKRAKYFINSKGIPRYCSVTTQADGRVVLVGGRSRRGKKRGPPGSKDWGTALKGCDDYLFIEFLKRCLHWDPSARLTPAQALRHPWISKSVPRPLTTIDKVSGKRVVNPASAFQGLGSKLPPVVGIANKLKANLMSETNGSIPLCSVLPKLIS

MAPK11 (human) = MAPK11 (human) (UniProt Q15759)
Sequence of MAPK11 (human) (Q15759 whole entry, looked up): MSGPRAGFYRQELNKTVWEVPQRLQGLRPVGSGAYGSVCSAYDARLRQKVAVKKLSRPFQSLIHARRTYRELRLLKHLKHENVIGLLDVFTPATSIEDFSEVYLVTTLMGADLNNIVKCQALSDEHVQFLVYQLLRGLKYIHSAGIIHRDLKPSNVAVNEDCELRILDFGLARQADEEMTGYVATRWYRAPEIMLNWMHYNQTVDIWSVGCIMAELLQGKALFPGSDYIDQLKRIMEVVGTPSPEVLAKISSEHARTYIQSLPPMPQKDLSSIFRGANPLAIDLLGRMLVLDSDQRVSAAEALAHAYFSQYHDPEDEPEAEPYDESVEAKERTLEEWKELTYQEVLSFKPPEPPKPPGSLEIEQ

PAK4 (human) = PAK4 (human) (UniProt O96013)
RPS6KA3 KD1 KD2 (human) = RPS6KA3 KD1 KD2 (human) (UniProt P51812)
MAPK14 (human) = MAPK14 (human) (UniProt Q16539)
NTRK1 (human) = NTRK1 (human) (UniProt P04629)
Sequence of NTRK1 (human) (P04629 whole entry, looked up): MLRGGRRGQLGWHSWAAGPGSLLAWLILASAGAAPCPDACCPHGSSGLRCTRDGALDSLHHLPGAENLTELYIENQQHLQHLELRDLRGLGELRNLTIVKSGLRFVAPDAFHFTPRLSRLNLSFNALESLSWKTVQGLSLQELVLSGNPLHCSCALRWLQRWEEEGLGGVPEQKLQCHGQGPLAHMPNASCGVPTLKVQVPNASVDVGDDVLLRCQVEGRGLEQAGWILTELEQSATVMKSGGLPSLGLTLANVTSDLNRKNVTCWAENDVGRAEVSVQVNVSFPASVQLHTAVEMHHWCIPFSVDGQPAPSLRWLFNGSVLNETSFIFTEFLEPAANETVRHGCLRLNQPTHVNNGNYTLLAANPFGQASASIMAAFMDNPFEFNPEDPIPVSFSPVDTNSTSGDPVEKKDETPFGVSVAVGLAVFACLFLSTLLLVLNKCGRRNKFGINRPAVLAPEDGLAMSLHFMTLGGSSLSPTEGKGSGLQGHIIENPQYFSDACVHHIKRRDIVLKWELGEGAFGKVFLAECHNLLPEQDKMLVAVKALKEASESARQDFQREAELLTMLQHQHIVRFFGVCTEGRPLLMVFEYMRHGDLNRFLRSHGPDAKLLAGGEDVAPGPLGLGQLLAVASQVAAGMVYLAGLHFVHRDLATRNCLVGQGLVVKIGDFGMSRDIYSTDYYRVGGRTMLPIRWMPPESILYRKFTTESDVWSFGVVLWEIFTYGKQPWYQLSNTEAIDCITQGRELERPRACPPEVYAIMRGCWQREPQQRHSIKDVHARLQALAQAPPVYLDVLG

PLK1 (human) = PLK1 (human) (UniProt P53350)
CSNK2A1 (human) = CSNK2A1 (human) (UniProt P68400)
MKNK2 (human) = MKNK2 (human) (UniProt Q9HBH9)
[2] = test system: RPS6KB1 (human), P23443 [T412E]
ROCK2 (rat) = settings: accession and sequence are those of the human protein
[3] = test system: SGK1 (human), O00141 [S422D]
MAPKAPK5 (human) = MAPKAPK5 (human) (UniProt Q8IW41)
Sequence of MAPKAPK5 (human) (Q8IW41 whole entry, looked up): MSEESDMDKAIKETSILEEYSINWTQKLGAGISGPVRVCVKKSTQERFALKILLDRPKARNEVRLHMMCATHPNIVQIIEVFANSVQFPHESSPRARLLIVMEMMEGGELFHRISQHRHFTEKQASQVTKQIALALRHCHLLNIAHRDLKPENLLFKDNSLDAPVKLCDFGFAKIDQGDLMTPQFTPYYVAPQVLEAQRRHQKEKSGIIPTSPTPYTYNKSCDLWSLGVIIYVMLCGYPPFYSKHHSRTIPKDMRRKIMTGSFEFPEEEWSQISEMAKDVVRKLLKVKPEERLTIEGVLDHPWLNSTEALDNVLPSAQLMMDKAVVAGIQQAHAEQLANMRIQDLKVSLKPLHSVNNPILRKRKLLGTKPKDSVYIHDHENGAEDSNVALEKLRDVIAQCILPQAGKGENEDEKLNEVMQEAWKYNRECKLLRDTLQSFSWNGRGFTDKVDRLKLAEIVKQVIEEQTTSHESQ

BRSK2 (human) = BRSK2 (human) (UniProt Q8IWQ3)
PIM1 (human) = PIM1 (human) (UniProt P11309)
PIM2 (human) = PIM2 (human) (UniProt Q9P1W9)
Sequence of PIM2 (human) (Q9P1W9 whole entry, looked up): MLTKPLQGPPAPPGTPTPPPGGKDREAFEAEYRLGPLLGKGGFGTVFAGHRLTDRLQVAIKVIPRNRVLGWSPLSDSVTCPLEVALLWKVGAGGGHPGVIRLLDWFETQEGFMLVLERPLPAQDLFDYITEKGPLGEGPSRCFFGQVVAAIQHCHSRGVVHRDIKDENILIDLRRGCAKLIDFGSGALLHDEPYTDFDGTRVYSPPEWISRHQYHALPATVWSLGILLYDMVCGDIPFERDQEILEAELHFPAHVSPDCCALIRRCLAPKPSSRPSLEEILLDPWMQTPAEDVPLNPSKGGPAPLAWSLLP

RPS6KA1 KD1 KD2 (human) = RPS6KA1 KD1 KD2 (human) (UniProt Q15418)
CLK2 (human) = CLK2 (human) (UniProt P49760)

Sequence of DAPK1 (human) (P53355 whole entry, looked up): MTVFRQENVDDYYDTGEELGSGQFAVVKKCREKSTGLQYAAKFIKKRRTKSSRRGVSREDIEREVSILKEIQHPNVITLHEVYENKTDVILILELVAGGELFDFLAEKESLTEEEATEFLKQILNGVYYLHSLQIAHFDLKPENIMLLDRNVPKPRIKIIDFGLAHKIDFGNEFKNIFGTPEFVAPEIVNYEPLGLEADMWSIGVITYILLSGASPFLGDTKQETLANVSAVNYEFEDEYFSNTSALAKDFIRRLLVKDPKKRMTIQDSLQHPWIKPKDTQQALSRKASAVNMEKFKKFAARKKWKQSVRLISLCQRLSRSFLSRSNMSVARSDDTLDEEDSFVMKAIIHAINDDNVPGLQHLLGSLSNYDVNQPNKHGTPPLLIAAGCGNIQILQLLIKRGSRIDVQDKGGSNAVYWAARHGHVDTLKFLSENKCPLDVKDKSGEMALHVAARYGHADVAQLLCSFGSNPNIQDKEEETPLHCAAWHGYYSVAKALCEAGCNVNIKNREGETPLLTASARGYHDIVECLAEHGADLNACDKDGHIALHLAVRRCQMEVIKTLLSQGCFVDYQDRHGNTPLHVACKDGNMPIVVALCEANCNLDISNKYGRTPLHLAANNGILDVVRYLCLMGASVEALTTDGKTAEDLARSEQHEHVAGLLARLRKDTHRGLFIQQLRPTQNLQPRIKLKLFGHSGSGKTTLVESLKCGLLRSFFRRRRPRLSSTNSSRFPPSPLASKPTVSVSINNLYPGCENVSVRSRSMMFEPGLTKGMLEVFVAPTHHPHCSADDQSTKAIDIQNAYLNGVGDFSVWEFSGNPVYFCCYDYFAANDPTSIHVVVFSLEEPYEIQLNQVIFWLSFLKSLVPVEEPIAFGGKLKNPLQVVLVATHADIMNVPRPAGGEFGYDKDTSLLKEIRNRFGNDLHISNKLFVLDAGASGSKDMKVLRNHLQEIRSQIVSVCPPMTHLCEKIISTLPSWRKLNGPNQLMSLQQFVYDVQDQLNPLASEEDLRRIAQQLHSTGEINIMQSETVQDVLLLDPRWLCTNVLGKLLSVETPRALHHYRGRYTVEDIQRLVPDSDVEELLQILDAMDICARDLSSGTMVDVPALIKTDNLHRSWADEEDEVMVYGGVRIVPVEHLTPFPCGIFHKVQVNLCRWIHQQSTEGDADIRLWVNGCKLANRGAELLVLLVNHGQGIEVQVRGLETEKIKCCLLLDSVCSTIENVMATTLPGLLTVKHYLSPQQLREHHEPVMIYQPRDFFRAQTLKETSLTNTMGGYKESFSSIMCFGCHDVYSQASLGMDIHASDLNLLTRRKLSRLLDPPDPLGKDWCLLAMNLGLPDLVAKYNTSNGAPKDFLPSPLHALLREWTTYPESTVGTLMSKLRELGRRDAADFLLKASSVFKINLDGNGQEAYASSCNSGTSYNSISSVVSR

`O=C(N[C@@H](COc1ccc2[nH]c(=O)[nH]c2c1)c1ccccc1)c1cccn(Cc2ccc(F)c(F)c2)c1=O` was tested, and the residual activity (MAPK8 (human); compound 0.1 µM) was 100%, the residual activity (MAPK8 (human); compound 10.0 µM) was 114% and the residual activity (DAPK1 (human); compound 0.1 µM) was 106%. The residual activity (DAPK1 (human); compound 1.0 µM) was 113%, the residual activity (DAPK1 (human); compound 10.0 µM) was 91% and the residual activity (MAPKAPK3 (human); compound 0.1 µM) was 116%. For the same compound, the residual activity (MAPKAPK3 (human); compound 1.0 µM) was 109%, the residual activity (MAPKAPK3 (human); compound 10.0 µM) was 74% and the residual activity (IKBKE (human); compound 0.1 µM) was 103%. For the same compound, the residual activity (IKBKE (human); compound 1.0 µM) was 109%, the residual activity (IKBKE (human); compound 10.0 µM) was 95% and the residual activity (IKBKB (human); compound 0.1 µM) was 102%. For the same compound, the residual activity (IKBKB (human); compound 1.0 µM) was 99%, the residual activity (IKBKB (human); compound 10.0 µM) was 99% and the residual activity (EPHB3 (human); compound 0.1 µM) was 114%. For the same compound, the residual activity (EPHB3 (human); compound 1.0 µM) was 119%, the residual activity (EPHB3 (human); compound 10.0 µM) was 113% and the residual activity (PIM3 (human); compound 0.1 µM) was 103%. It also gave a residual activity (PIM3 (human); compound 1.0 µM) of 108%, a residual activity (PIM3 (human); compound 10.0 µM) of 95% and a residual activity (MAP2K6 (human); compound 0.1 µM) of 94%. It also gave a residual activity (MAP2K6 (human); compound 1.0 µM) of 89%, a residual activity (MAP2K6 (human); compound 10.0 µM) of 108% and a residual activity (MAP3K11 (human); compound 0.1 µM) of 104%. It also gave a residual activity (MAP3K11 (human); compound 1.0 µM) of 97%, a residual activity (MAP3K11 (human); compound 10.0 µM) of 46% and a residual activity (MAPK3 (human); compound 0.1 µM) of 93%. The residual activity (MAPK3 (human); compound 1.0 µM) was 101%, the residual activity (MAPK3 (human); compound 10.0 µM) was 95% and the residual activity (STK3 (human); compound 0.1 µM) was 102%. For the same compound, the residual activity (STK3 (human); compound 1.0 µM) was 105%, the residual activity (STK3 (human); compound 10.0 µM) was 100% and the residual activity ([1]; compound 0.1 µM) was 96%. It also gave a residual activity ([1]; compound 1.0 µM) of 97%, a residual activity ([1]; compound 10.0 µM) of 90% and a residual activity (DYRK1A (human); compound 0.1 µM) of 113%. It also gave a residual activity (DYRK1A (human); compound 1.0 µM) of 97%, a residual activity (DYRK1A (human); compound 10.0 µM) of 79% and a residual activity (MAPK12 (human); compound 0.1 µM) of 98%. For the same compound, the residual activity (MAPK12 (human); compound 1.0 µM) was 110%, the residual activity (MAPK12 (human); compound 10.0 µM) was 105% and the residual activity (TBK1 (human); compound 0.1 µM) was 109%. It also gave a residual activity (TBK1 (human); compound 1.0 µM) of 132%, a residual activity (TBK1 (human); compound 10.0 µM) of 102% and a residual activity (IRAK4 (human)) of 110%. For the same compound, the residual activity (MAP3K7 TAB1 (human); compound 0.1 µM) was 97%, the residual activity (MAP3K7 TAB1 (human); compound 1.0 µM) was 103% and the residual activity (MAP3K7 TAB1 (human); compound 10.0 µM) was 54%. It also gave a residual activity (DYRK3 (human); compound 0.1 µM) of 109%, a residual activity (DYRK3 (human); compound 1.0 µM) of 109% and a residual activity (DYRK3 (human); compound 10.0 µM) of 93%. For the same compound, the residual activity (MAPK11 (human); compound 0.1 µM) was 100%, the residual activity (MAPK11 (human); compound 1.0 µM) was 110% and the residual activity (MAPK11 (human); compound 10.0 µM) was 115%. For the same compound, the residual activity (PAK4 (human); compound 0.1 µM) was 102%, the residual activity (PAK4 (human); compound 1.0 µM) was 101% and the residual activity (PAK4 (human); compound 10.0 µM) was 67%. The residual activity (RPS6KA3 KD1 KD2 (human); compound 0.1 µM) was 102%, the residual activity (RPS6KA3 KD1 KD2 (human); compound 1.0 µM) was 98% and the residual activity (RPS6KA3 KD1 KD2 (human); compound 10.0 µM) was 85%. For the same compound, the residual activity (MAPK14 (human); compound 0.1 µM) was 114%, the residual activity (MAPK14 (human); compound 1.0 µM) was 121% and the residual activity (MAPK14 (human); compound 10.0 µM) was 114%. It also gave a residual activity (NTRK1 (human); compound 0.1 µM) of 113%, a residual activity (NTRK1 (human); compound 1.0 µM) of 98% and a residual activity (NTRK1 (human); compound 10.0 µM) of 78%. The residual activity (PLK1 (human); compound 0.1 µM) was 118%, the residual activity (PLK1 (human); compound 1.0 µM) was 107% and the residual activity (PLK1 (human); compound 10.0 µM) was 121%. For the same compound, the residual activity (CSNK2A1 (human); compound 0.1 µM) was 111%, the residual activity (CSNK2A1 (human); compound 1.0 µM) was 103% and the residual activity (CSNK2A1 (human); compound 10.0 µM) was 107%. It also gave a residual activity (MKNK2 (human); compound 0.1 µM) of 117%, a residual activity (MKNK2 (human); compound 10.0 µM) of 112% and a residual activity ([2]; compound 0.1 µM) of 103%. For the same compound, the residual activity ([2]; compound 1.0 µM) was 97%, the residual activity ([2]; compound 10.0 µM) was 98% and the residual activity (ROCK2 (rat); compound 0.1 µM) was 105%. For the same compound, the residual activity (ROCK2 (rat); compound 1.0 µM) was 112%, the residual activity (ROCK2 (rat); compound 10.0 µM) was 108% and the residual activity ([3]; compound 0.1 µM) was 106%. It also gave a residual activity ([3]; compound 1.0 µM) of 102%, a residual activity ([3]; compound 10.0 µM) of 102% and a residual activity (MAPKAPK5 (human); compound 0.1 µM) of 108%. For the same compound, the residual activity (MAPKAPK5 (human); compound 1.0 µM) was 100%, the residual activity (MAPKAPK5 (human); compound 10.0 µM) was 95% and the residual activity (BRSK2 (human); compound 0.1 µM) was 118%. It also gave a residual activity (BRSK2 (human); compound 1.0 µM) of 90%, a residual activity (BRSK2 (human); compound 10.0 µM) of 79% and a residual activity (PIM1 (human); compound 0.1 µM) of 101%. The residual activity (PIM1 (human); compound 1.0 µM) was 105%, the residual activity (PIM1 (human); compound 10.0 µM) was 76% and the residual activity (PIM2 (human); compound 0.1 µM) was 107%. It also gave a residual activity (PIM2 (human); compound 1.0 µM) of 105%, a residual activity (PIM2 (human); compound 10.0 µM) of 85% and a residual activity (RPS6KA1 KD1 KD2 (human); compound 0.1 µM) of 95%. For the same compound, the residual activity (RPS6KA1 KD1 KD2 (human); compound 1.0 µM) was 93%, the residual activity (RPS6KA1 KD1 KD2 (human); compound 10.0 µM) was 114% and the residual activity (CLK2 (human); compound 0.1 µM) was 106%. The residual activity (CLK2 (human); compound 1.0 µM) was 95% and the residual activity (CLK2 (human); compound 10.0 µM) was 74%.
